Where two headings read alike, the source gives them in different places.
What was measured:
CDK1/Cyclin B = biological target: T1, CDK1/Cyclin B (Homo sapiens, UniProt P06493); assay: Enzymatic assay for CDK1 (LANCE Ultra kinase assay, FRET based); format: biochemical
T1 construct: purchased Invitrogen PR4768C
Outline: (§1)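 TR-FRET (LANCE Ultra) kinase assays with a ULight-labelled peptide substrate and a Europium-labelled anti-phospho antibody. ATP was set at its Km for each kinase. Inhibition was measured on purified CDK/cyclin complexes: CDK7/Cyclin H/MNAT1 and CDK1/Cyclin B.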

CDK2/Cyclin A = biological target: T2, CDK2/Cyclin A (Homo sapiens, UniProt P24941); assay: Enzymatic assay for CDK2 (LANCE Ultra kinase assay, FRET based); format: biochemical; conditions: ATP at Km
T2 construct: purchased Invitrogen PV6290
Outline: (§2)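 Inhibition was measured at ATP Km with 68 nM ULight-MBP peptide and CDK2/Cyclin A ([…]) or CDK5/p25 ([…]), using 8-dose 4-fold compound dilutions from DMSO. Kinase reaction ran 60 min at 23° C, then Eu anti-phospho-MBP plus EDTA were added for another 60 min before the fluorescence read.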

CDK5/p25 = biological target: T3, CDK5/p25 (Homo sapiens, UniProt Q00535); assay: Enzymatic assay for CDK5 (LANCE Ultra kinase assay, FRET based); format: biochemical; conditions: ATP at Km
T3 construct: purchased Invitrogen PR8543B
Outline: as §2

CDK7/Cyclin H/MNAT1 = biological target: T4, CDK7/Cyclin H/MNAT1 (Homo sapiens, UniProt P50613); assay: Enzymatic assay for CDK7 (LANCE Ultra kinase assay, FRET based); format: biochemical; conditions: for IC50: ATP at Km
T4 construct: purchased Invitrogen PR6749B
Outline: as §1

H460 = assay: Cellular H460 viability assay (CellTiter-Glo, 72 hours); format: cell-based; conditions: Homo sapiens, NCI-H460; H460 cells
Description: All cell lines were routinely tested for mycoplasma.
To effect of the CDK7 inhibitor to inhibit the growth of target cancer cells, viability assay were conducted a 72 hour time period. Briefly, the candidate cell line was plated in 96 well plate at the following density of cells respectively. 1×10^4 cells/well for MV4-11, 5×10^3 for H460 and OVCAR-3, and 1×10^3 for A2780. […] DMSO solvent without compound served as a control and final DMSO concentration lest than 0.1%. After 72 hours of incubation at 37° C., 5% CO2 incubator, cells were analyzed for the viability using the CellTiter-Glo Luminescent Cell Viability Assay (Promega, Cat #G7570). All viability assays were performed in duplicate and Luminescence was read using an Envision (Perkin Elmer, USA). Data was analyzed using XLfit software.

MV4-11 = assay: Cellular MV4-11 viability assay (CellTiter-Glo, 72 hours); format: cell-based; conditions: Homo sapiens; MV4-11 cells
Outline: (§3)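 Cells in RPMI-1640 with 10% FBS were seeded (MV4-11 1×10^4, OVCAR-3 5×10^3, A2780 1×10^3 cells/well) and treated 24 h later with compound at 0.0015–10 uM, final DMSO under 0.1%. After 72 h at 37 °C, viability was read by CellTiter-Glo luminescence, in duplicate.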

A2780 = A2780 viability assay (CellTiter-Glo, 72 hours); format: cell-based; conditions: Homo sapiens; A2780 cells
Outline: as §3

OVCAR-3 = OVCAR-3 viability assay (CellTiter-Glo, 72 hours); format: cell-based; conditions: Homo sapiens; OVCAR-3 cells
Outline: as §3

[1] = ATP at Km, read-out: CDK1 enzymatic activity IC50

T4 sequence (P50613 whole entry): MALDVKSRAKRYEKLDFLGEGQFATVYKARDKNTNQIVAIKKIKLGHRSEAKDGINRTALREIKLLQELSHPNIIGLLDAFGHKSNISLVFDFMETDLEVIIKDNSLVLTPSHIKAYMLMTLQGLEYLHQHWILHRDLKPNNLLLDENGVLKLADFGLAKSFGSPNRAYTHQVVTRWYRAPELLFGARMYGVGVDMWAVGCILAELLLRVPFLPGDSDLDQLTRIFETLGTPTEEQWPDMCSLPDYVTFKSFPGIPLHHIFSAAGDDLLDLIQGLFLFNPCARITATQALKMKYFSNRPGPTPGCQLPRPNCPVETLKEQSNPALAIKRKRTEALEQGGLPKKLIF
T4 sequence (P51946 whole entry partner): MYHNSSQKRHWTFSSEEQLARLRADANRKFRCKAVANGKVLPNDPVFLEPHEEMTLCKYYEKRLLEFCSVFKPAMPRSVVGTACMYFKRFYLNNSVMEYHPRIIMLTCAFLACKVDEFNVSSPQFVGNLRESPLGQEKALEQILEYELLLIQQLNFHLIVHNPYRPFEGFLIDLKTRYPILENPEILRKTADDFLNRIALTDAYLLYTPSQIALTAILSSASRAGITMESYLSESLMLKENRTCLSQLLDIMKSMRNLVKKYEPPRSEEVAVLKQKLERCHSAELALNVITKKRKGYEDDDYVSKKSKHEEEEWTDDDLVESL
T4 sequence (P51948 whole entry partner): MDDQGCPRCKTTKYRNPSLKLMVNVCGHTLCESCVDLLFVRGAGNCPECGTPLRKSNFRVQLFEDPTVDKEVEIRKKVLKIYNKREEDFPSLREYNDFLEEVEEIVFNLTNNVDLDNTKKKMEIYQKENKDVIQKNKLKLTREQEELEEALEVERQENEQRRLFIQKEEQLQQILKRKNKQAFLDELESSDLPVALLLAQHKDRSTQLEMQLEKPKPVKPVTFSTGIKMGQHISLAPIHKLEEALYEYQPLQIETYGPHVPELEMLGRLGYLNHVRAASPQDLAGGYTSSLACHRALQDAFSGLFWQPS
T3 sequence (Q00535 whole entry): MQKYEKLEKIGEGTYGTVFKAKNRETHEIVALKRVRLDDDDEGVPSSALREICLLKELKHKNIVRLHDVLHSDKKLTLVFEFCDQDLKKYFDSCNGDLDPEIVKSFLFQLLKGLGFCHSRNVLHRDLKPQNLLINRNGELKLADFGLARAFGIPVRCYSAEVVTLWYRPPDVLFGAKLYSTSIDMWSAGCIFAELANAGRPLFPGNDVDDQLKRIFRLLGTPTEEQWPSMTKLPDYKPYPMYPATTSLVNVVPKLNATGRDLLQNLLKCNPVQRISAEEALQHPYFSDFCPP
T3 sequence (Q15078 99-307 partner limits assumed): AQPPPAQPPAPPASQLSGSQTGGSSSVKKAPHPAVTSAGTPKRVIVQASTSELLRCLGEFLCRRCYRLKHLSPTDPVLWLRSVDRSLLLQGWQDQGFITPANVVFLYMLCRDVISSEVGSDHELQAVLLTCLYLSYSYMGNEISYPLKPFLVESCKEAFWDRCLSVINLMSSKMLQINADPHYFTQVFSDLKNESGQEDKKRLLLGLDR
T1 sequence (P06493 whole entry): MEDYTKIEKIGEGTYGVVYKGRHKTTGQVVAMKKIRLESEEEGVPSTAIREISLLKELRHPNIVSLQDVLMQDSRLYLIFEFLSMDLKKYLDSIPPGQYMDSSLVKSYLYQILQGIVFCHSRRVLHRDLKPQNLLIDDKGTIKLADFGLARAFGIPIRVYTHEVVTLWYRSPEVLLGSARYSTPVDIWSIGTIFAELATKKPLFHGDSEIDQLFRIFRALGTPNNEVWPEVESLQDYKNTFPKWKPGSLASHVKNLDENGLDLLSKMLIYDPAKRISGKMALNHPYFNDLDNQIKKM
T1 sequence (P14635 whole entry partner): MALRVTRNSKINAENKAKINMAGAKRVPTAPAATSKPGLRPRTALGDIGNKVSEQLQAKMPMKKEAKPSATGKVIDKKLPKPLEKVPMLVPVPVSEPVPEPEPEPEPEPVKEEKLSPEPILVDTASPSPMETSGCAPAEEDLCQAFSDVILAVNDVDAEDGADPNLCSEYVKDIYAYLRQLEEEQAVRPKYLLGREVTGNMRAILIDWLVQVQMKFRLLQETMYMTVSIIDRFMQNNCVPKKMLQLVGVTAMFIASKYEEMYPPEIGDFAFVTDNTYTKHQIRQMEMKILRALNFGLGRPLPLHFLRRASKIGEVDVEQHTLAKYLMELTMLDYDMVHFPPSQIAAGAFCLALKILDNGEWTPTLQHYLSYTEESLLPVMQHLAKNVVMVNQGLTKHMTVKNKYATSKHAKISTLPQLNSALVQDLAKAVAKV

SMILES	IC50 (CDK1/Cyclin B; [1])	IC50 (CDK2/Cyclin A)	IC50 (CDK5/p25)	IC50 (CDK7/Cyclin H/MNAT1)	CDK1/CDK7: Selectivity of CDK7 inhibition over CDK1 inhibition (CDK7/Cyclin H/MNAT1)	CDK2/CDK7: Selectivity of CDK7 inhibition over CDK2 inhibition (CDK7/Cyclin H/MNAT1)	CDK5/CDK7: Selectivity of CDK7 inhibition over CDK5 inhibition (CDK7/Cyclin H/MNAT1)	IC50 (H460)	IC50 (MV4-11)	IC50 (A2780)	IC50 (OVCAR-3)	IC50 (CDK1/Cyclin B)
CC(C)c1cnn2c(NCc3ccccc3-c3cc4cccc(NC(=O)/C=C/CN(C)C)c4[nH]3)nc(N3CCC(N)CC3)nc12 [Compound 25]	100 to 1000 nM	100 to 1000 nM	< 100 nM	< 100 nM	B (B indicates 50 < [fold] ≤ 500)	C (C indicates [fold] ≤ 50)	C (C indicates [fold] ≤ 50)	< 1000 nM	< 1000 nM	< 1000 nM	< 1000 nM	
CC(C)c1cnn2c(NCc3ccccc3-c3nccc4cc(NC(=O)/C=C/CN(C)C)ccc34)nc(NC[C@H]3CCNC[C@@H]3O)nc12 [Compound 26]	> 1000 nM	> 1000 nM	> 1000 nM	< 100 nM	A (A indicates [fold] > 500)	A (A indicates [fold] > 500)	A (A indicates [fold] > 500)	< 1000 nM	< 1000 nM	< 1000 nM	< 1000 nM	
CC(C)c1cnn2c(NCc3ccccc3-c3ccc4cccc(NC(=O)/C=C/CN(C)C)c4n3)nc(N3CCC(N)CC3)nc12 [Compound 20]	> 1000 nM	> 1000 nM	100 to 1000 nM	< 100 nM	B (B indicates 50 < [fold] ≤ 500)	A (A indicates [fold] > 500)	B (B indicates 50 < [fold] ≤ 500)	< 1000 nM	< 1000 nM	< 1000 nM	< 1000 nM	
C=CC(=O)Nc1cccc(Oc2cccc(CNc3nc(N4CCC(N)CC4)nc4c(C(C)C)cnn34)c2)c1 [Compound 5]	> 1000 nM	100 to 1000 nM	100 to 1000 nM	< 100 nM	B (B indicates 50 < [fold] ≤ 500)	B (B indicates 50 < [fold] ≤ 500)	C (C indicates [fold] ≤ 50)	< 1000 nM				
C=CC(=O)Nc1cccc(Oc2cccc(CNc3nc(N4CCC(N(C)C)CC4)nc4c(C(C)C)cnn34)c2)c1 [Compound 14]	> 1000 nM	> 1000 nM	100 to 1000 nM	< 100 nM	A (A indicates [fold] > 500)	B (B indicates 50 < [fold] ≤ 500)	B (B indicates 50 < [fold] ≤ 500)	< 1000 nM				
CC(C)c1cnn2c(NCc3ccccc3-n3cc4cc(NC(=O)/C=C/CN(C)C)ccc4n3)nc(N3CCC(N)CC3)nc12 [Compound 24]	100 to 1000 nM	100 to 1000 nM	100 to 1000 nM	< 100 nM	B (B indicates 50 < [fold] ≤ 500)	C (C indicates [fold] ≤ 50)	C (C indicates [fold] ≤ 50)	1000 to 10000 nM				
CC(C)c1cnn2c(NCc3cccc(OC4CCCN(C(=O)/C=C/CN(C)C)CC4)c3)nc(N3CCC(N)CC3)nc12 (racemic) [Compound 18]	> 1000 nM	100 to 1000 nM	100 to 1000 nM	< 100 nM	A (A indicates [fold] > 500)	B (B indicates 50 < [fold] ≤ 500)	B (B indicates 50 < [fold] ≤ 500)	< 1000 nM				
CC(C)c1cnn2c(NCc3cccc(-c4cc5cc(NC(=O)/C=C/CN(C)C)ccc5[nH]4)c3)nc(N3CCC(N)CC3)nc12 [Compound 23]	> 1000 nM	> 1000 nM	100 to 1000 nM	< 100 nM	B (B indicates 50 < [fold] ≤ 500)	C (C indicates [fold] ≤ 50)	C (C indicates [fold] ≤ 50)	1000 to 10000 nM				
CC(C)c1cnn2c(NCc3cccc(NC(=O)c4cccc(NC(=O)/C=C/CN(C)C)c4)c3)nc(N3CCC(N)CC3)nc12 [Compound 1]		100 to 1000 nM	100 to 1000 nM	< 100 nM	B (B indicates 50 < [fold] ≤ 500)	B (B indicates 50 < [fold] ≤ 500)	C (C indicates [fold] ≤ 50)	1000 to 10000 nM				> 1000 nM
CC(C)c1cnn2c(NCc3ccccc3-c3nccc4cc(NC(=O)/C=C/CN(C)C)ccc34)nc(N[C@H]3CC[C@H](O)CC3)nc12 [Compound 27]	> 1000 nM	> 1000 nM	> 1000 nM	< 100 nM	B (B indicates 50 < [fold] ≤ 500)	B (B indicates 50 < [fold] ≤ 500)	B (B indicates 50 < [fold] ≤ 500)	< 1000 nM	< 1000 nM	< 1000 nM	< 1000 nM	
C=CC(=O)Nc1cccc(Oc2ccccc2CNc2nc(N3CCC(N)CC3)nc3c(C(C)C)cnn23)c1 [Compound 7]	> 1000 nM	> 1000 nM	> 1000 nM	< 100 nM	A (A indicates [fold] > 500)	A (A indicates [fold] > 500)	B (B indicates 50 < [fold] ≤ 500)	< 1000 nM				
CC(C)c1cnn2c(NCc3ccccc3-c3cc4c(NC(=O)/C=C/CN(C)C)cccc4[nH]3)nc(N3CCC(N)CC3)nc12 [Compound 3]	100 to 1000 nM	100 to 1000 nM	< 100 nM	< 100 nM	C (C indicates [fold] ≤ 50)	C (C indicates [fold] ≤ 50)	C (C indicates [fold] ≤ 50)	< 1000 nM	< 1000 nM	< 1000 nM	< 1000 nM	
CC(C)c1cnn2c(NCc3cccc(NC(=O)C4CCCN(C(=O)/C=C/CN(C)C)CC4)c3)nc(N3CCC(N)CC3)nc12 (racemic) [Compound 22]	> 1000 nM	100 to 1000 nM	100 to 1000 nM	< 100 nM	A (A indicates [fold] > 500)	B (B indicates 50 < [fold] ≤ 500)	C (C indicates [fold] ≤ 50)	1000 to 10000 nM				
CC(C)c1cnn2c(NCc3ccccc3OC3CCN(C(=O)/C=C/CN(C)C)CC3)nc(N3CCC(N)CC3)nc12 [Compound 6]	> 1000 nM	> 1000 nM	100 to 1000 nM	< 100 nM	A (A indicates [fold] > 500)	A (A indicates [fold] > 500)	C (C indicates [fold] ≤ 50)	< 1000 nM				
CC(C)c1cnn2c(NCc3cccc(Oc4ccc(Cl)c(NC(=O)/C=C/CN(C)C)c4)c3)nc(N3CCC(N)CC3)nc12 [Compound 15]	> 1000 nM	100 to 1000 nM	100 to 1000 nM	< 100 nM	A (A indicates [fold] > 500)	B (B indicates 50 < [fold] ≤ 500)	B (B indicates 50 < [fold] ≤ 500)	< 1000 nM				
CC(C)c1cnn2c(NCc3cccc4ccc(NC(=O)/C=C/CN(C)C)nc34)nc(N3CCC(N)CC3)nc12 [Compound 12]	> 1000 nM	> 1000 nM	100 to 1000 nM	< 100 nM	A (A indicates [fold] > 500)	B (B indicates 50 < [fold] ≤ 500)	C (C indicates [fold] ≤ 50)	< 1000 nM				

Source: patent US12606561B2, “Substituted pyrazolo[1,5-a][1,3,5]triazines as CDK inhibitors” (QURIENT CO., LTD., priority 2018, dated 2026)
